The results in this text go back to US20170128489A1 (priority 2014, published 2017).

As usually defined, the EC50 is the concentration that produces a half-maximal response.

Like-named read-outs stand apart in the source and are kept apart here.

The target in one assay is M2 (22-62, S31N) (Influenza A virus, UniProt P0DOF5, S31N). It is filed as biochemical.
Assay [1] relates to influenza A (S31N), A/California/07/2009. It is filed as cell-based, Influenza A virus.
For assay [2], the target named is influenza A M2 channels (A/Udorn/72, S31N mutant) (Influenza A virus, UniProt P0DOF5, S31N). It is filed as cell-based. Particulars: for Percent Block / EC50: pH 5.3.
Assay [3] deals with M2 22-62 peptide, mutant A/Udorn/72 S31N (Influenza A virus, UniProt P0DOF5, S31N). It counts as biochemical.
Assay [4] relates to influenza A (S31N), A/California/07/2009. It counts as cell-based, Influenza A virus. The source holds these as a separate data set.

`O=C(O)CN(CC(=O)O)C12CC3CC(CC(C3)C1)C2.[Cu]` [Amt-IDA-Cu, Copper N-(1-adamantyl)-iminodiacetic acid]: the “% Block” value at M2 (22-62, S31N) is listed as 82%. For the same molecule, in assay [1], the “% Block” value came to 82% and the EC50 is 21.8 µM.
`O=C1C[N](C2CCCCCCC2)[Cu]2([O]1)[O]C(=O)C[N]2C1CCCCCCC1` [Bis(CO-IMA)-Cu, Copper biscyclooctyl iminomonoacetic acid]: in assay [2], the “Percent Washout” value is 11% and the “Percent Block” value was 81%. In assay [3], the “Mutant Percent Block” value is listed as 70.38% and the “Mutant w/ Compound Proton Flux” value is 16.95 H^+/sec/channel. Moreover, in assay [4], the “% Block” value came to 66.4% and the EC50 was 25.3 µM.
As for `O=C(O)CN(CC(=O)O)C1CCCCCCC1` [CO-IDA, Cylcooctyliminodiacetic acid], the “Percent Block” value in assay [2] is listed as “No Block”.
As to `O=C(O)CN(CC(=O)O)C1CCCCCCC1.[Cu]` [CO-IDA-Cu, Copper cyclooctyliminodiacetic acid], in assay [2], the “Percent Washout” value stood at 94% and the “Percent Block” value is reported as 26%. Further, in assay [3], the “Mutant Percent Block” value is reported as 75.75% and the “Mutant w/ Compound Proton Flux” value stood at 12.89 H^+/sec/channel. In assay [4], the “% Block” value turned out to be 62.2% and the EC50 is 30.3 µM.
In the case of `O=C(O)CN(CC(=O)O)C1CCCCCCC1.[Zn]` [CO-IDA-Zn, Zinc cyclooctyliminodiacetic acid], in assay [2], the “Percent Washout” value came to 80% and the “Percent Block” value is 32%. In assay [3], the “Mutant Percent Block” value is given as 76.29% and the “Mutant w/ Compound Proton Flux” value was determined as 13.21 H^+/sec/channel. In addition, the “% Block” value in assay [4] came to 61.5%.
On to `NC(=O)CN(CC(N)=O)C1CCCCCCC1` [CO-IDAm, Cyclooctylimidodiacetamide], for which, in assay [2], the “Percent Washout” value was 100% and the “Percent Block” value came to 17%.
For the molecule `CC(=O)[O][Zn]1[O]C(=O)C[N]1C1CCCCCCC1` [CO-IMA-Zn, Zinc cyclooctylaminoacetic acid], in assay [2], the “Percent Washout” value came to 93% and the “Percent Block” value was 42%. In addition, in assay [4], the “% Block” value came out at 79.8% and the EC50 turned out to be 12.6 µM.
`CC(=O)[O-].CC(=O)[O-].[Cu+2]` [Cu(Acetate)2, reference compound]: in assay [2], the “Percent Washout” value came out at 4%, the EC50 came out at 74 µM and the “Percent Block” value is reported as 70%. In addition, in assay [3], the “Mutant Percent Block” value is given as 67.23% and the “Mutant w/ Compound Proton Flux” value is recorded as 17.85 H^+/sec/channel. Also, in assay [4], the “% Block” value came out at 38% and the EC50 was 40.8 µM.
With `NCCNCCN.[Cl][Cu][Cl]` [Cu(dien)Cl2, reference compound], in assay [1], the “% Block” value came out at 66% and the midpoint of the response, the EC50, lay at 51.6 µM.
Take `[Cl][Cu][Cl]` [CuCl2, reference compound]: at M2 (22-62, S31N), the “% Block” value was found to be 94% and the response was half-maximal at 6.1 µM (EC50). In assay [1], the “% Block” value amounted to 63% and a half-maximal effect (EC50) was put at 57.2 µM.
With “Cobalt Biscyclooctylimidodiacetic acid [Bis(CO-IDA)-Co]”, in assay [2], the “Percent Washout” value is 89%; the midpoint of the response, the EC50, lay at 240 µM; the “Percent Block” value is recorded as 28%. Further, in assay [4], the “% Block” value is listed as 50.6% and the response was half-maximal at 24.4 µM (EC50).
Regarding “Cobalt bisethylenediamine pinanamine imidazole [Pin-Imid-Co-Bis(en)]”, the “Percent Block” value in assay [2] is reported as “No Block”. Further, in assay [4], the “% Block” value was determined as 65.6% and the EC50 came out at 13.1 µM.
Take “Copper N-(1-adamantyl)iminoacetate acetylacetonate [Amt-IMA-Cu-ACAC]”: on M2 (22-62, S31N), the “% Block” value is on record as 96%. Moreover, in assay [1], the “% Block” value was 97% and the concentration giving a half-maximal response (EC50) was 2.91 µM. Further, in assay [2], the “Percent Washout” value worked out at 58% and the “Percent Block” value was 65%.
For the molecule “Copper N-(1-cyclooctyl)iminoacetate acetylacetonate [CO-IMA-Cu-ACAC]”, in assay [2], the “Percent Washout” value came to 16% and the “Percent Block” value worked out at 73%. Besides, in assay [4], the “% Block” value is recorded as 65.7% and the EC50 is 13.1 µM.
Consider “Copper cyclooctylimidodiacetamide [CO-IDAm-Cu]”, for which, in assay [2], the “Percent Washout” value was found to be 10% and the “Percent Block” value stood at 86%. In assay [4], the “% Block” value turned out to be 60.2% and a half-maximal effect (EC50) was put at 33.5 µM.
Consider “Copper pinanamine imidazole [Pin-Imid-Cu]”, for which, in assay [4], the “% Block” value turned out to be 71.6%.
For “Zinc cyclooctylimidodiacetamide [CO-IDAm-Zn]”, in assay [2], the “Percent Washout” value stood at 74% and the “Percent Block” value worked out at 42%. Also, in assay [4], the “% Block” value was 54% and the response was half-maximal at 21.3 µM (EC50).
